Measurements reported in PMC7017353, “Delineating the Molecular Basis of the Calmodulin–bMunc13-2 Interaction by Cross-Linking/Mass Spectrometry—Evidence for a Novel CaM Binding Motif in bMunc13-2” (Cells, 2020).
Where a SMILES comes first, the peptide text is derived from it.

System: recombinant CaM
Assay: Photoaffinity labeling (PAL)-based competition assay
Type: binding
Details: photoprobe segment-C-Bpa 5 µM, CaM 5 µM, 200 µM Ca2+, SDS-PAGE and MALDI-TOF-MS; for molar excess of competitor for complete suppression of photoadduct formation (full displacement of photoprobe): competitor 0–250 µM, 2 h RT; for suppression of photoadduct formation (in words): competitor up to 50-fold molar excess
Method: Photoreactive peptides were synthesized by Fmoc chemistry using the amino acid derivative Fmoc-para-benzoylphenylalanine (Bpa, Novabiochem). Photoaffinity labeling (PAL)-based competition experiments with recombinant CaM were performed and analyzed as described previously. Briefly, CaM (5 µM) and segment-C-Bpa (5 µM) or segment-CS-Bpa (5 µM) were incubated in 50 mM HEPES (pH 7.2), 150 mM KCl, 5 mM DTT for 2 h at RT in the dark with (200 µM Ca^2+) or without (2 mM EGTA) calcium, and in the presence of increasing concentrations (0–250 μM) of competitor peptides. Following UV irradiation, photoadduct formation was visualized and quantified by SDS-PAGE and linear matrix-assisted laser desorption/ionization–time-of-flight–mass spectrometry (MALDI-TOF-MS).

Compound | molar excess of competitor for complete suppression of photoadduct formation (full displacement of photoprobe) | suppression of photoadduct formation (in words)
719 CINNFKNVLREKRLRQKKLLQELV 742 [segment-CS] | > 50 fold molar excess | could not suppress photoadduct formation
CC[C@H](C)[C@H](NC(=O)[C@H](CS)NC(=O)[C@H](CCCCN)NC(=O)[C@H](CC(N)=O)NC(=O)[C@H](CC(C)C)NC(=O)[C@H](Cc1ccc(O)cc1)NC(=O)[C@@H](NC(=O)[C@@H](NC(=O)[C@H](CCC(=O)O)NC(=O)[C@H](C)NC(=O)[C@H](CS)NC(=O)[C@H](CC(=O)O)NC(=O)[C@H](CCC(N)=O)NC(=O)[C@H](CCC(=O)O)NC(=O)[C@H](CC(C)C)NC(=O)[C@H](CO)NC(=O)[C@H](CC(C)C)NC(=O)[C@H](CCCCN)NC(C)=O)[C@@H](C)O)[C@@H](C)CC)C(=O)N[C@@H](CC(N)=O)C(=O)N[C@@H](CC(N)=O)C(=O)N[C@@H](Cc1ccccc1)C(=O)N[C@@H](CCCCN)C(=O)N[C@@H](CC(N)=O)C(=O)N[C@H](C(=O)N[C@@H](CC(C)C)C(=O)N[C@@H](CCCNC(=N)N)C(=O)N[C@@H](CCC(=O)O)C(=O)N[C@@H](CCCCN)C(=O)N[C@@H](CCCNC(=N)N)C(=O)N[C@@H](CC(C)C)C(=O)N[C@@H](CCCNC(=N)N)C(=O)N[C@@H](CCC(N)=O)C(=O)N[C@@H](CCCCN)C(=O)N[C@@H](CCCCN)C(=O)N[C@@H](CC(C)C)C(=O)N[C@@H](CC(C)C)C(=O)N[C@@H](CCC(N)=O)C(=O)N[C@@H](CCC(=O)O)C(=O)N[C@@H](CC(C)C)C(=O)N[C@H](C(N)=O)C(C)C)C(C)C [Segment V709D] (Ac-KLSLEQDCAETIYLNKCINNFKNVLREKRLRQKKLLQELV-NH2; N-terminus and C-terminus assumed) | > 50 fold molar excess | –
703KLSLEQVCAETIYLNKCINNDKNVLREKRLRQKKLLQELV742 [Segment F723D, segment-C variant with F723 exchanged to aspartic acid] | – | not able to displace segment-C-Bpa at all
719CINNFKNVLREKRLRQKKLLQELVQTASHLSVED742 [segment-CL] | > 50 fold molar excess | could not suppress photoadduct formation
